Active and inactive are the calls of the source. No cut-off for these calls is given here.
Legend:
Staphylococcus aureus [1] = test: (§1) Antibacterial activity against Staphylococcus aureus ATCC43300 infected in sepsis mouse model assessed as reduction in inflammatory cell infiltration in liver at 10 mg/kg pre-infected with bacteria for 1 hrs followed by compound administration at 12 hrs interval for 2 days by H and E staining based analysis; assay type: functional, organism-based; settings: time 2.0 day
Staphylococcus aureus [2] = test: Bactericidal activity against Staphylococcus aureus ATCC43300 in presence of 50% plasma; assay type: functional
[3] = Selectivity index, ratio of HC50 for hemolytic activity in red blood cells (unknown origin) to MIC for antibacterial activity against penicillin-resistant Staphylococcus aureus ATCC43300; assay type: toxicity, cell-based, RBC; settings: read-out: Selectivity Index
[4] = system: Staphylococcus epidermidis; test: Antibacterial activity against erythromycin-susceptible Staphylococcus epidermidis ATCC12228 by broth microdilution assay; assay type: functional
Escherichia coli [5] = test: as §1, with “Escherichia coli ATCC25922” for “Staphylococcus aureus ATCC43300”, “kidney” for “liver”; assay type: functional, organism-based; settings: time 2.0 day
Staphylococcus aureus [6] = test: as §1, with “spleen” for “liver”; assay type: functional, organism-based; settings: time 2.0 day
Escherichia coli [7] = test: Induction of morphological changes in Escherichia coli ATCC25922 assessed as collapse of cell membrane by scanning electron microscopic analysis; assay type: functional, organism-based

CCCCCCOc1cc[n+](CCCOc2ccc(/C=C/C(=O)c3ccc(OCCC[n+]4ccc(OCCCCCC)cc4)cc3)cc2)cc1.[Br-].[Br-]
Activity (Staphylococcus aureus [1]): inactive
MBC (Staphylococcus aureus [2]): 4 µg/mL
selectivity ratio [3]: 659
MIC [4]: 0.5 µg/mL
Activity (Escherichia coli [5]): inactive
Activity (Staphylococcus aureus [6]): inactive
Activity (Escherichia coli [7]): Active

— ChEMBL document CHEMBL6092194, “Development of membrane-targeting chalcone derivatives as antibacterial agents against multidrug-resistant bacteria” (Eur J Med Chem, 2024)
